Test results reported in ChEMBL document CHEMBL3244023, “A structure-carcinogenicity study of 4-nitroquinoline 1-oxides using the SIMCA method of pattern recognition” (J Med Chem, 1978).

Assays:
[1] = Lipophilicy, log P of the compound; assay type: physicochemical; conditions: octanol/water
Mus musculus = assay: Carcinogenicity in mouse assessed as tumor development administered sc in left groin 6 times at 10-day interval; assay type: toxicity, organism-based; conditions: in vivo

SMILES	logP [1]	Activity (Mus musculus)
CCc1c(C)c([N+](=O)[O-])c2ccccc2[n+]1[O-]	2.56	
CCCCc1ccc2c(c1)c(NO)cc[n+]2[O-]	2.1	Toxic
O=[N+]([O-])c1c(F)c[n+]([O-])c2ccccc12	1.25	
O=C(O)c1ccc2c(c1)c([N+](=O)[O-])cc[n+]2[O-]	0.42	
Cc1cc([N+](=O)[O-])c2ccccc2[n+]1[O-]	1.25	Toxic
Cc1c[n+]([O-])c2ccccc2c1[N+](=O)[O-]	1.24	
O=[N+]([O-])c1cccc2c1c([N+](=O)[O-])cc[n+]2[O-]	0.95	
CCCCCCc1ccc2c(c1)c(NO)cc[n+]2[O-]	3.35	Non-toxic
CC(C)(C)c1cc([N+](=O)[O-])c2ccccc2[n+]1[O-]	1.07	
O=[N+]([O-])c1cc[n+]([O-])c2ccc(C3CCCCC3)cc12	2.8	Non-toxic
O=[N+]([O-])c1ccc2c([N+](=O)[O-])cc[n+]([O-])c2c1	0.45	Non-toxic
O=[N+]([O-])c1ccc2c(c1)c([N+](=O)[O-])cc[n+]2[O-]	0.9	
CCCCCCc1ccc2c(c1)c([N+](=O)[O-])cc[n+]2[O-]	3.26	Non-toxic
Cc1ccc2c(c1)c([N+](=O)[O-])cc[n+]2[O-]	1.24	Toxic
CCc1cc([N+](=O)[O-])c2ccccc2[n+]1[O-]	1.76	Toxic
O=[N+]([O-])c1cc[n+]([O-])c2ccc(Cl)cc12	1.4	Toxic
Cc1cccc2c1c([N+](=O)[O-])cc[n+]2[O-]	1.25	Toxic

SMILES	logP [1]	Activity (Mus musculus)
[O-][n+]1ccc(NO)c2cc(C3CCCCC3)ccc21	2.89	Non-toxic
O=[N+]([O-])c1c(Cl)c[n+]([O-])c2ccccc12	1.33	
Cc1ccc2c([N+](=O)[O-])cc[n+]([O-])c2c1	1.49	Toxic
O=[N+]([O-])c1cc[n+]([O-])c2ccccc12 [4-NITROQUINOLINE-1-OXIDE]	1.01	Toxic
O=[N+]([O-])c1ccc2c(c1)c(NO)cc[n+]2[O-]	-0.28	Toxic
CCCCc1ccc2c(c1)c([N+](=O)[O-])cc[n+]2[O-]	3.11	Toxic
CC(C)(C)c1ccc2c(c1)c(NO)cc[n+]2[O-]	2.05	Non-toxic
O=[N+]([O-])c1cc[n+]([O-])c2c([N+](=O)[O-])cccc12	0.76	Non-toxic
O=[N+]([O-])c1cc[n+]([O-])c2cccc(Cl)c12	1.75	Toxic
COc1c[n+]([O-])c2ccccc2c1[N+](=O)[O-]	0.43	Non-toxic
O=[N+]([O-])c1cc[n+]([O-])c2cc(Cl)ccc12	1.75	Toxic
Cc1cccc2c([N+](=O)[O-])cc[n+]([O-])c12	1.48	Toxic
O=[N+]([O-])c1cc[n+]([O-])c2cc(Cl)c(Cl)cc12	2.49	Toxic
O=[N+]([O-])c1c(Br)c[n+]([O-])c2ccccc12	1.99	Toxic
CC(C)(C)c1ccc2c(c1)c([N+](=O)[O-])cc[n+]2[O-]	3.06	
O=[N+]([O-])c1cc[n+]([O-])c2c(F)cccc12	1	
